Consider one compound from patent publication US10086039B2, “Lamin A, an activator of longevity/anti-aging SIRT1 protein” (THE UNIVERSITY OF HONG KONG, priority 2012, dated 2018).

This assay has as its target T1, SIRT1 (Homo sapiens, UniProt Q96EB6).
T1 sequence (Q96EB6 1-747): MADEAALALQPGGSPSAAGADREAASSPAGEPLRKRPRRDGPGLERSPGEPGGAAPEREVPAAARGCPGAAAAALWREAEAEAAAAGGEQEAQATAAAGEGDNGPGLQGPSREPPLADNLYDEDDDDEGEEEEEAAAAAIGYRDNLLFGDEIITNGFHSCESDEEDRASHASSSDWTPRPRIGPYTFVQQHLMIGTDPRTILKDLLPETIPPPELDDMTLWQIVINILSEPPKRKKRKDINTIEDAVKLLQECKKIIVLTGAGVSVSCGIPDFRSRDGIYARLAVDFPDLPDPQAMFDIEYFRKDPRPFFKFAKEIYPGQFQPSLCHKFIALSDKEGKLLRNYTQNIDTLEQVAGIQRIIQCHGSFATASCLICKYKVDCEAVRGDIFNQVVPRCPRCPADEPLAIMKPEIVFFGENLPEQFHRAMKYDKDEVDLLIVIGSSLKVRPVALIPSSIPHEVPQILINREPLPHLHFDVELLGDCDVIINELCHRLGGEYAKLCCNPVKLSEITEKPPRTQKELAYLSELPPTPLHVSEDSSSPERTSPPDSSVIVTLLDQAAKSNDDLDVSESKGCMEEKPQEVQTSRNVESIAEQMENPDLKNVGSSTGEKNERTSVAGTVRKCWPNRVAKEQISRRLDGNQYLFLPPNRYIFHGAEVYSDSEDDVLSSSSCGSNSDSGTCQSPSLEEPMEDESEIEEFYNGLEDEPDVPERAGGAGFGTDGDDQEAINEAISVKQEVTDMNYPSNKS
The experiment in a line: SIRT1 deacetylation assay on native full-length acetyl FLAG-p53 (Western blotting, anti-acetyl lysine). The arrangement: purchased Biomol (Hamburg, Germany). The class given is biochemical. As to the method:
SIRT1 deacetylation assay on fluorophore-conjugated synthetic p53 peptide was performed with SIRT1 Fluorimetric Drug Discovery Kit (Biomol, Hamburg, Germany) according to the manufactory's instruction. Cells were fractionated as described above except that protease inhibitors were NOT included and the nuclear matrix fraction was suspended into the assay buffer provided by the supplier. Different cell fractions or recombinant human lamin A (rhLamin A, Diatheva, Italy) were added in the reaction mix of SIRT1 Fluorimetric Drug Discovery Kit, incubated for 20 min at 37° C., and then the reaction was stopped and fluorescent signal was detected. SIRT1 deacetylase activity on native target was assayed using SIRT1 assay Kit from Sigma (USA). Constructs encoding FLAG-p53 and HA-p300 were co-transfected into HEK293 cells; FLAG-p53 was immunoprecipitated by anti-FLAG M2 Agarose (Sigma) followed by elution with FLAG peptide (Sigma). Purified acetyl FLAG-p53 was incubated with recombinant human SIRT1 (rhSIRT1) and NAD+ for 30 min at 37° C., in the presence or absence of rhLamin A or resveratrol. The acetylation level of FLAG-p53 was determined by Western blotting with pan anti acetyl lysine antibodies.
To further test the effect of rhLamin A on the native target of SIRT1, acetyl p53 was purified by anti-FLAG immunoprecipitation in HEK293 cells ectopically expressing FLAG-p53 and p300, and SIRT1 deacetylation assay was performed as described in Materials and Methods.

Regarding `Oc1ccc(C=Cc2cc(O)cc(O)c2)cc1` [resveratrol], the “activation of SIRT1 deacetylase activity, native full-length FLAG-p53 as substrate” value is recorded as “activated SIRT1 in a lamin A dose-dependent manner” (in the presence of rhLamin A) and “does not directly activate” (without rhLamin A).
